This note sets out measurements from patent publication US12421225B2, “Heteroaromatic amide derivative and medicament containing the same” (KAKEN PHARMACEUTICAL CO., LTD., priority 2018, dated 2025).

pIC50: −log10 of the molar value.

The target in one data set is human Nav1.5 (Homo sapiens (Human), UniProt Q14524). Put plainly: Human Nav1.5 inhibitory activity evaluation (automated patch clamp QPatch16X, HEK293 cells stably expressing human Nav1.5). The class given is cell-based. The essentials:
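IC50 derived from concentration-response of inward current at the 20th of 20 action-potential-mimicking pulses (holding −80 mV, leak corrected with −100 mV step). HEK293 cells stably expressing human Nav1.5, room temperature, extracellular pH 7.4, intracellular CsF-based pH 7.3, 0.1% DMSO.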
(In general: In patch-clamp work, channel activity is measured electrically.)

The target in another data set is human Nav1.7 (Homo sapiens (Human), UniProt Q15858). The experiment in a line: Human Nav1.7 inhibitory activity evaluation (automated patch clamp QPatch16X, HEK293A cells stably expressing human Nav1.7 and human Navβ1). The class given is cell-based. The method, boiled down:
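IC50 calculated from the concentration-response of inward current evoked by the second −10 mV, 50 ms depolarisation, which follows a 15 s conditioning step at roughly 30-40% inactivation and a 100 ms −120 mV interval. Cells: HEK293A expressing human Nav1.7/Navβ1, automated patch clamp, room temperature, 0.1% DMSO final.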

[1] abbreviates: human Nav1.5, automated patch clamp.
The mark [2] stands for this setting: human Nav1.7, automated patch clamp.
The mark [3] stands for this setting: HEK293 cells stably expressing human Nav1.5, automated patch clamp QPatch16X.
Where [4] appears, read: HEK293A cells stably expressing human Nav1.7 and human Navβ1, automated patch clamp QPatch16X.

human Nav1.7, sequence (Q15858 whole entry): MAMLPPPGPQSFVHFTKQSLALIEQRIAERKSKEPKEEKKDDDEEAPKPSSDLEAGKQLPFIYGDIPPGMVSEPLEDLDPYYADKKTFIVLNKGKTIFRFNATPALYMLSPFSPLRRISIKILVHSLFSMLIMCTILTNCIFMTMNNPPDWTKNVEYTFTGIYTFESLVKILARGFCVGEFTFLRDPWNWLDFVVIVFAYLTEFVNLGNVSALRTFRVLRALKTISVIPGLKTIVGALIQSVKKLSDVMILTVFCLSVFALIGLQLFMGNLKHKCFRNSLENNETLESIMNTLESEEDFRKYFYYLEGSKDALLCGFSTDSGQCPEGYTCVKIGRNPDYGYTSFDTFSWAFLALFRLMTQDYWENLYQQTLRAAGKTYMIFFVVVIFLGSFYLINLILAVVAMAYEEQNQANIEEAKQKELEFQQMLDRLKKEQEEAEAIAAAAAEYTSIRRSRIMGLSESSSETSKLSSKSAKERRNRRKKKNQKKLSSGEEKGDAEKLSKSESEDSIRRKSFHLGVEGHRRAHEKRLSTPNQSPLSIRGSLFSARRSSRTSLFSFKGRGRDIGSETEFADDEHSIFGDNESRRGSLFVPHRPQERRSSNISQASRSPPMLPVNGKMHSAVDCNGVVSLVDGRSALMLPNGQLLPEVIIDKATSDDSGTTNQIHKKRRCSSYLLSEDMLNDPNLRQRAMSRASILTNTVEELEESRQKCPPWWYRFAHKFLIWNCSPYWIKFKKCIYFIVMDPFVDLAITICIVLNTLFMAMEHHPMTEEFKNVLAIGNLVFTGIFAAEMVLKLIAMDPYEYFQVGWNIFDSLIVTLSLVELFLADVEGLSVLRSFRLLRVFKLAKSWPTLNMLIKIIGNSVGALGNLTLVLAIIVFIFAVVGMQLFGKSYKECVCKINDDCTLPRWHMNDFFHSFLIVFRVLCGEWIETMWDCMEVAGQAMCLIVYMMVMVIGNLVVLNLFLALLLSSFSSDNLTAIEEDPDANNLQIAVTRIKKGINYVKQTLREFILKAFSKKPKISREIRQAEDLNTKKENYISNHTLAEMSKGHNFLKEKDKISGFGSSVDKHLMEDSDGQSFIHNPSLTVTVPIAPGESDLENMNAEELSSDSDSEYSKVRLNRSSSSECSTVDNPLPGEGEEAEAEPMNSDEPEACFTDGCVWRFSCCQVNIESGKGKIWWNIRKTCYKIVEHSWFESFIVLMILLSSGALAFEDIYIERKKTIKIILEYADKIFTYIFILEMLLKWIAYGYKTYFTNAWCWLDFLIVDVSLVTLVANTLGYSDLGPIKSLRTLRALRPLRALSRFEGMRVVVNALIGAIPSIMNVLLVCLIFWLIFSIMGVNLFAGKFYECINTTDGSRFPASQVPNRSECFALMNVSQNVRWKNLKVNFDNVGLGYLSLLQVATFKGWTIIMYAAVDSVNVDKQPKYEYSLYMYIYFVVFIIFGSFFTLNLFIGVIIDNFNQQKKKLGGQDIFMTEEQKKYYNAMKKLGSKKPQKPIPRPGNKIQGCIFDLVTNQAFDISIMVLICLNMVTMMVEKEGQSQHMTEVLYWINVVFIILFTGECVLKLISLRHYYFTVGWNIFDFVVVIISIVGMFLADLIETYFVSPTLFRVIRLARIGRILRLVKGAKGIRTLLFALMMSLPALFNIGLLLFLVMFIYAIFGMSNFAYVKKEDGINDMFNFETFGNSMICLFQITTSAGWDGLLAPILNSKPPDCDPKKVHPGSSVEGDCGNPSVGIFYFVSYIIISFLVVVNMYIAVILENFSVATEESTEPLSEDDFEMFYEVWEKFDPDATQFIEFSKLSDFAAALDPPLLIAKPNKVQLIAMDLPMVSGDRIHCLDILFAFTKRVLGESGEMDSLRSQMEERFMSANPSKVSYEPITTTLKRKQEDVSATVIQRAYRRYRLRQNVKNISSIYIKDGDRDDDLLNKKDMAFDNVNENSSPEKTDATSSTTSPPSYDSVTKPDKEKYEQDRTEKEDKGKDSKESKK
human Nav1.7, sequence (Q07699 19-218 partner): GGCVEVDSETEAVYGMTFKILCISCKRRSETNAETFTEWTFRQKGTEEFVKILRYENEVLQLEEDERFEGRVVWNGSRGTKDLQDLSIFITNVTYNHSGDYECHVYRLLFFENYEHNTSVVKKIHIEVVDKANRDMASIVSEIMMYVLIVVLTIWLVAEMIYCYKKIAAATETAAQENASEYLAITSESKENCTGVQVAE
human Nav1.5, sequence (Q14524 whole entry): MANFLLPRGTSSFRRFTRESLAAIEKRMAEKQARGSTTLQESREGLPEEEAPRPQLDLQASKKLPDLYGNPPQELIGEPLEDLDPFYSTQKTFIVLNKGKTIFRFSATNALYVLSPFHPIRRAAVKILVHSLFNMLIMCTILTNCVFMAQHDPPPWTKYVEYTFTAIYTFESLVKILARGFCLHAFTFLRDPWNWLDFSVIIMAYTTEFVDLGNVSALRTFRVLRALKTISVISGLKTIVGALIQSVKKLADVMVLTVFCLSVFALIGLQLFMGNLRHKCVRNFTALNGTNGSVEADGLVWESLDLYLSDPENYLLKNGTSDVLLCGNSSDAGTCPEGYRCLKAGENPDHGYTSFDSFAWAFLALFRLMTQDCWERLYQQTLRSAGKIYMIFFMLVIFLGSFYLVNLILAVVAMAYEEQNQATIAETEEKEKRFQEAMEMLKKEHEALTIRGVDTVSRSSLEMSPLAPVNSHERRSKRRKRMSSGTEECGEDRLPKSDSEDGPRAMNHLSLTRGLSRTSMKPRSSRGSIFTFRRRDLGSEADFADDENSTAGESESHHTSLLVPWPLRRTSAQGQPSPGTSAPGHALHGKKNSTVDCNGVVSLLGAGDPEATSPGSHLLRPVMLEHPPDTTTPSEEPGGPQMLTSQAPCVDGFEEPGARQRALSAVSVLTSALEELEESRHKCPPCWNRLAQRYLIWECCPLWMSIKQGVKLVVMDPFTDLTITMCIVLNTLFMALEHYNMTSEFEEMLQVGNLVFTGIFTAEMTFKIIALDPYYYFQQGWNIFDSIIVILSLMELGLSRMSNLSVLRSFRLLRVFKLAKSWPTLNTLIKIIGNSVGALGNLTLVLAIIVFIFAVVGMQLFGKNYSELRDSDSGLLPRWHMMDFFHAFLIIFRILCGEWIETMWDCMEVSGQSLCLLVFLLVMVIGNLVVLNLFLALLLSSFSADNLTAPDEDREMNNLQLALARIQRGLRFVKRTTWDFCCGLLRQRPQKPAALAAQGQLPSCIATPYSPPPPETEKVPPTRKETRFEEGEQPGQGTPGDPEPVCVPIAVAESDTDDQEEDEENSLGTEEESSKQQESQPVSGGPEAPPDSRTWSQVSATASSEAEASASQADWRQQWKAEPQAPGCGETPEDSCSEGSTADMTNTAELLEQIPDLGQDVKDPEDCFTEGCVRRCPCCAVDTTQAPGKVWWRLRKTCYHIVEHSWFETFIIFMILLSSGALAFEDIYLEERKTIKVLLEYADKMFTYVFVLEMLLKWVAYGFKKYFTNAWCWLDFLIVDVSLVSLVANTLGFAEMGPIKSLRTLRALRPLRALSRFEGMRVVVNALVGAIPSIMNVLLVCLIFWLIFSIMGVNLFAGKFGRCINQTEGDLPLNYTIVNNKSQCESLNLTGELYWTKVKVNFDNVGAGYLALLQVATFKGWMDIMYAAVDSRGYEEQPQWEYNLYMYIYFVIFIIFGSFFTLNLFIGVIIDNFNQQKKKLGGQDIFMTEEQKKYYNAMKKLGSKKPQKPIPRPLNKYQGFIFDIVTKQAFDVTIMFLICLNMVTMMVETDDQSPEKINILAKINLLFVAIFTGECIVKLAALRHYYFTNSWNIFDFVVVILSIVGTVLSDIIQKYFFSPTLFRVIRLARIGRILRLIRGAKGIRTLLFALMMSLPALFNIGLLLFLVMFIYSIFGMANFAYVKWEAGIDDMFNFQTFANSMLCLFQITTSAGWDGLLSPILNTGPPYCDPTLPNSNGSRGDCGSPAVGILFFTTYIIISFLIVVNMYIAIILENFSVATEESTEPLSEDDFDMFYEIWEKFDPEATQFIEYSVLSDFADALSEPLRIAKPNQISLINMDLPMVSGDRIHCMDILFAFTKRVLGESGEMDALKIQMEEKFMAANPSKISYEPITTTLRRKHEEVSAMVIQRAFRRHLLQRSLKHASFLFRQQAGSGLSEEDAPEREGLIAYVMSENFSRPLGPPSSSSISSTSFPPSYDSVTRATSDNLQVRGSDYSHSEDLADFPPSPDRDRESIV

Consider `O=C(N[C@H]1COc2ccc(Cl)cc2C1)c1cc2n(n1)CCC(CNCC(F)(F)F)O2` (single isomer, unassigned) [152 (isomer A)], for which the pIC50 (commonly the negative decadic logarithm of the IC50, by convention in mol/L) at human Nav1.5 (setting [1]) was not above 5.52; at human Nav1.7 (setting [2]), more than 6.00.

With `O=C(N[C@H]1COc2ccccc2C1)c1nc2n(c1Cl)CC(c1ccccc1)CC2` (stereo partly drawn) [Example 25], the pIC50 was 5.52 to 6.00 against human Nav1.5 (setting [3]) and more than 5.00 against human Nav1.7 (setting [4]).

On to `O=C(NC1COc2cccc(-c3ccccc3)c2C1)c1cn2c(n1)CCC(C(F)(F)F)C2` (stereo not drawn) [Example 291], for which the figures for the pIC50 on human Nav1.5 (setting [1]) and at human Nav1.7 (setting [2]) were not above 5.52 and more than 5.00, respectively.

As to `O=C(N[C@H]1COc2ccc(C(F)(F)F)cc2C1O)c1cc2n(n1)CC(CCCOCC(F)F)O2` (single isomer, unassigned) [610 (isomer A)], the pIC50 at human Nav1.5 (setting [1]) is not above 5.52; at human Nav1.7 (setting [2]), more than 6.00.

As to `CCc1ccc2c(c1)C[C@@H](NC(=O)c1cc3n(n1)CCC(c1ccccc1F)O3)CO2` (stereo partly drawn) [Example 76], the pIC50 against human Nav1.5 (setting [3]) was not above 5.52; against human Nav1.7 (setting [4]) it was more than 6.00.

For `N#Cc1ccc2c(c1)C[C@@H](NC(=O)c1cc3n(n1)CCC(CSCC(F)(F)F)O3)CO2` (stereo partly drawn) [Example 422], the pIC50 against human Nav1.5 (setting [1]) is not above 5.52; at human Nav1.7 (setting [2]), more than 5.00.

As for `O=C(N[C@H]1COc2ccc(C(F)F)cc2C1)c1cn2c(n1)CCC(C(F)(F)F)C2` (single isomer, unassigned) [7 (isomer B)], the pIC50 was not above 5.52 at human Nav1.5 (setting [3]) and more than 6.00 on human Nav1.7 (setting [4]).

Regarding `CCC1CCn2nc(C(=O)N[C@H]3COc4ccc(Cl)cc4C3)cc2O1` (stereo partly drawn) [Example 90], the pIC50 at human Nav1.5 (setting [3]) is 5.52 to 6.00; against human Nav1.7 (setting [4]) it was more than 6.00.

Turning to `O=C(c1cn2c(n1)CCC(c1cccnc1C(F)(F)F)C2)N1CCC1Cc1ccccc1` (stereo not drawn) [Example 30], the pIC50 at human Nav1.5 (setting [3]) was not above 5.52; against human Nav1.7 (setting [4]), more than 5.00.

As for `COc1ccc(-c2ccc3c(c2)C[C@@H](NC(=O)c2cc4n(n2)CCC(C(F)(F)F)O4)CO3)cn1` (stereo partly drawn) [Example 378], the pIC50 against human Nav1.5 (setting [1]) was not above 5.52; at human Nav1.7 (setting [2]), more than 5.00.

As for `O=C(N[C@H]1COc2ccc(C(F)(F)F)cc2C1)c1cc2n(n1)CC(CCN1CC(F)(F)C1)O2` (single isomer, unassigned) [236 (isomer B)], the results for the pIC50 at human Nav1.5 (setting [1]) and on human Nav1.7 (setting [2]) were 5.52 to 6.00 and more than 6.00, respectively.

On to `CN1Cc2nc(C(=O)NCCc3cccc(N4CCOCC4)c3)cn2CC1c1ccccc1` (stereo not drawn) [Example 62], for which the pIC50 against human Nav1.5 (setting [3]) was not above 5.52; against human Nav1.7 (setting [4]), more than 5.00.

For the compound `O=C(N[C@H]1COc2ccc(CC(F)(F)F)cc2C1)c1nc2n(c1-c1ccccn1)CCOC2` [Example 343], the values for the pIC50 at human Nav1.5 (setting [1]) and against human Nav1.7 (setting [2]) were 5.52 to 6.00 and more than 6.00, respectively.

For the compound `O=C(N[C@H]1COc2ccc(CC(F)F)cc2C1)c1cc2n(n1)CCC(COC(F)(F)F)O2` (single isomer, unassigned) [136 (isomer A)], the pIC50 on human Nav1.5 (setting [3]) and against human Nav1.7 (setting [4]) was more than 6.00 throughout.

On to `O=C(N[C@H]1COc2ccc(CCN3CC(F)(F)C3)cc2C1)c1cc2n(n1)CCC(C(F)(F)F)O2` (stereo partly drawn) [Example 401], for which the pIC50 against human Nav1.5 (setting [1]) was not above 5.52; against human Nav1.7 (setting [2]), more than 5.00.

For the compound `N#Cc1ccc2c(c1)C[C@@H](NC(=O)c1cc3n(n1)CCC(COc1ccccn1)O3)CO2` (stereo partly drawn) [Example 411], the pIC50 at human Nav1.5 (setting [1]) was not above 5.52; against human Nav1.7 (setting [2]), more than 6.00.

Regarding `O=C(N[C@H]1COc2ccc(C(F)(F)F)cc2C1O)c1cc2n(n1)CC(CCCOCC(F)(F)F)O2` (single isomer, unassigned) [603 (isomer B)], the figures for the pIC50 against human Nav1.5 (setting [1]) and at human Nav1.7 (setting [2]) were not above 5.52 and more than 6.00, respectively.

Regarding `O=C(N[C@H]1COc2ccc(-c3ccncc3)cc2C1)c1cc2n(n1)CCC(c1ccccc1F)O2` (stereo partly drawn) [Example 80], the pIC50 is not above 5.52 against human Nav1.5 (setting [3]) and more than 6.00 against human Nav1.7 (setting [4]).

Take `O=C(N[C@H]1COc2ccc(COCC(F)(F)F)cc2C1)c1cc2n(n1)CCC(COC(F)F)O2` (single isomer, unassigned) [140 (isomer B)]: the values for the pIC50 at human Nav1.5 (setting [1]) and against human Nav1.7 (setting [2]) were 5.52 to 6.00 and more than 6.00, respectively.

In the case of `O=C(N[C@H]1COc2ccc(Cl)cc2C1)c1cc2n(n1)CCC(C(F)(F)F)O2` (single isomer, unassigned) [170 (isomer A)], the negative-log IC50 (pIC50) at human Nav1.5 (setting [1]) was 5.52 to 6.00; on human Nav1.7 (setting [2]), more than 6.00.

As to `O=C(N[C@H]1COc2ccc(CCOC(F)F)cc2C1)c1cc2n(n1)CCC(COC(F)F)O2` (stereo partly drawn) [Example 141], the pIC50 is not above 5.52 on human Nav1.5 (setting [1]) and more than 6.00 at human Nav1.7 (setting [2]).

As to `O=C(c1cc2n(n1)CCC(c1ccccc1)O2)N1CCC(c2cccc(C(F)(F)F)c2)C1` (stereo not drawn) [Example 350], the pIC50 was not above 5.52 on human Nav1.5 (setting [1]) and more than 5.00 on human Nav1.7 (setting [2]).

For the compound `N#Cc1ccc2c(c1)C[C@@H](NC(=O)c1cc3n(n1)CCC(C(F)(F)F)O3)CO2` (stereo partly drawn) [Example 373], the values for the pIC50 against human Nav1.5 (setting [1]) and against human Nav1.7 (setting [2]) were not above 5.52 and more than 5.00, respectively.

For the compound `Cn1ccc(-c2ccc3c(c2)C[C@@H](NC(=O)c2cc4n(n2)CC(CCSCC(F)(F)F)O4)CO3)n1` (stereo partly drawn) [Example 457], the negative-log IC50 (pIC50) against human Nav1.5 (setting [1]) is not above 5.52; at human Nav1.7 (setting [2]), more than 6.00.

In the case of `CN(C(=O)c1cn2c(n1)CCC(C(F)(F)F)C2)[C@H]1COc2ccc(Cl)cc2C1` (stereo partly drawn) [Example 3], the pIC50 is 5.52 to 6.00 against human Nav1.5 (setting [3]) and more than 6.00 against human Nav1.7 (setting [4]).

On to `Cc1cnc(-c2ccc3c(c2)C[C@@H](NC(=O)c2cc4n(n2)CC(COCC(F)(F)F)O4)CO3)cn1` (single isomer, unassigned) [194 (isomer B)], for which the pIC50 is not above 5.52 against human Nav1.5 (setting [1]) and more than 6.00 against human Nav1.7 (setting [2]).

On to `Cc1ccc2c(c1)C[C@@H](NC(=O)c1cc3n(n1)CC(CCNCC(F)(F)F)O3)CO2` (single isomer, unassigned) [228 (isomer A)], for which the pIC50 at human Nav1.5 (setting [1]) is not above 5.52; against human Nav1.7 (setting [2]) it was more than 6.00.

Consider `N#Cc1ccc2c(c1)C[C@@H](NC(=O)c1cc3n(n1)CCN(Cc1ccccc1C(F)(F)F)C3)CO2` [Example 499], for which the pIC50 against human Nav1.5 (setting [1]) is 5.52 to 6.00; against human Nav1.7 (setting [2]) it was more than 6.00.

`O=C(N[C@H]1COc2ccc(CC(F)F)cc2C1)c1cc2n(n1)CCC(COC(F)(F)F)O2` (stereo partly drawn) [Example 135]: the pIC50 at human Nav1.5 (setting [3]) is 5.52 to 6.00; against human Nav1.7 (setting [4]), more than 6.00.

As to `CCOCC1CCn2nc(C(=O)N[C@H]3COc4ccc(-c5ccccn5)cc4C3)cc2O1` (single isomer, unassigned) [124 (isomer B)], the pIC50 against human Nav1.5 (setting [3]) was not above 5.52; against human Nav1.7 (setting [4]) it was more than 5.00.

Consider `N#Cc1ccc2c(c1)C[C@@H](NC(=O)c1cc3n(n1)CC(COCC1CC1)O3)CO2` (stereo partly drawn) [Example 454], for which the pIC50 was not above 5.52 against human Nav1.5 (setting [1]) and more than 5.00 at human Nav1.7 (setting [2]).

`O=C(N[C@H]1COc2ccc(Cl)cc2C1)c1cc2n(n1)CCC(CN1CCC(F)(F)C1)O2` (single isomer, unassigned) [153 (isomer A)]: the values for the pIC50 on human Nav1.5 (setting [1]) and against human Nav1.7 (setting [2]) were 5.52 to 6.00 and more than 6.00, respectively.

`O=C(N[C@H]1COc2ccc(Cl)cc2C1)c1cn2c(n1)CCC(C(F)(F)F)C2` (single isomer, unassigned) [Example 2 (isomer A)]: the pIC50 at human Nav1.5 (setting [3]) was 5.52 to 6.00; on human Nav1.7 (setting [4]), more than 6.00.

In the case of `O=C(N[C@H]1COc2ccc(COC3CCOCC3)cc2C1)c1cc2n(n1)CCC(c1ccccc1F)O2` (stereo partly drawn) [Example 84], the pIC50 was not above 5.52 at human Nav1.5 (setting [3]) and more than 5.00 on human Nav1.7 (setting [4]).

As for `O=C(N[C@H]1COc2ccc(CC(F)F)cc2C1)c1cc2n(n1)CC(CCOC(F)F)O2` (single isomer, unassigned) [219 (isomer A)], the pIC50 against human Nav1.5 (setting [1]) is not above 5.52; on human Nav1.7 (setting [2]), more than 5.00.

`O=C(N[C@H]1COc2ccccc2C1)c1cn2c(n1)CCC(C1(F)CCC1)C2` (stereo partly drawn) [Example 35]: the figures for the pIC50 at human Nav1.5 (setting [3]) and on human Nav1.7 (setting [4]) were 5.52 to 6.00 and more than 6.00, respectively.
